“Also recorded” adds a separate entry of the source.
How the values were obtained:
autophagy = conditions: low pH media, and bulky tumors in vivo; Pellegrini et al.; cited from earlier work
[1] = test system: panel of human cancer cell lines; experiment: Cytotoxicity assay (MTS cell viability, 72 h); type: cell-based
Description: (§1) Materials and Methods. Cell lines and reagents. Human cancer cell lines ACHN (kidney adenocarcinoma), BxPC3 (pancreatic adenocarcinoma), DU145 (prostate carcinoma), HT29 (colorectal adenocarcinoma), Jurkat (T-cell lymphoma), LNCaP (androgen sensitive prostate adenocarcinoma), PC3 (androgen insensitive prostate adenocarcinoma), SB1A (melanoma), and T47D (breast infiltrating ductal carcinoma) were cultured RPMI 1640 (Mediatech, Inc., Manassas, Va.) supplemented with 10% fetal bovine serum, 1% penicillin/streptomycin/amphotericin B solution, 1 mM sodium pyruvate, 1% MEM non-essential amino acid solution, and 2 mM L-glutamine at 37° C. in a 5% CO2, humidified incubator. All supplements were purchased from HyClone™ (Logan, Utah). […] The resulting pH was measured to be 6.72±0.06 in the absence of cells. […]
(§2) Cytotoxicity assay. […] Viability was measured by the CellTiter 96 AQueous Non-Radioactive Cell Proliferation Assay (Promega, Madison, Wis.) according to manufacturer's instruction. Briefly, 20 μL of MTS/PMS reagent was added to each tissue culture well, and incubated at 37° C. for a minimum of 2 hours, or until the maximum absorbance at 490 nm on the plate (wells with highest cell numbers) reached a value greater than 0.6. Absorbance was measured on a Perkin-Elmer Victor X4 multi-label plate reader. […]

[2] = test system: isolated lysosomes of cells; experiment: Quantitation of drug from isolated lysosomes by HPLC-MS/MS; type: cell-based; conditions: preliminary, cells treated with equimolar quantities of either drug
Description: Experiments aimed at elucidating the mechanism of action of Cymanquine were conducted. […] It is known that the blockade of autophagy results in the accumulation of neutralized lysosomes and of proteins normally cleared by autophagic flux. FIG. 10 presents data that support a mechanism of action for Cymanquine as a weak base lysosomotropic autophagy inhibitor. […] The lysosomotropic fluorophore, NBD-PZ, was employed in conjunction with propidium iodide (PI) to simultaneously measure lysosomal accumulation, neutralization, and cell viability by flow cytometry on CQ and Cym treated SB1A cells (FIG. 10C-E). […] Furthermore, at the highest concentration of Cymanquine tested, NBD-PZ staining is reduced, due to either lysosome loss, or neutralization, as emission of this fluorophore is highly dependent upon pH. Preliminary quantitation of Cymanquine and CQ from isolated lysosomes of cells treated with equimolar quantities of either drug have been encouraging, showing a 60-fold higher accumulation of Cymanquine compared to CQ, as measured by HPLC-MS/MS.

LC3-II = experiment: Western blotting for LC3 isoforms in SB1A cells; type: cell-based, human; conditions: 24 h
Description: (§3) FIG. 10. Evidence of lysosomal accumulation and cytotoxicity obtained through autophagy blockade by Cymanquine. A, SB1A cells were treated with various concentrations of Cymanquine or CQ for 24 h prior to western blotting for LC3 isoforms 1 and 2 (LC3-I and II—see text), respectively. […] B, SB1A cells stably expressing EGFP-LC3 were treated with indicated concentrations of CQ and Cymanquine for 4 h prior to fluorescence microscopy evaluation of EGFP-LC3 sub-cellular deposition. C-E, SB1A were treated with various concentrations of Cymanquine or CQ for 24 h prior to simultaneous staining with NBD-PZ and propidium iodide and analysis by flow cytometry. C, Live cells, sorted based on absence of propidium iodide staining (left panel, pentagonal gate) were analyzed for NBD-PZ staining, indicative of lysosomal content. B,C, The dose-response of Cymanquine and CQ on B, percentage of live cells (negative for propidium iodide staining), and C, NBD-PZ median fluorescence intensity of live cells. […]
(§4) Experiments aimed at elucidating the mechanism of action of Cymanquine were conducted. […] Preliminary quantitation of Cymanquine and CQ from isolated lysosomes of cells treated with equimolar quantities of either drug have been encouraging, showing a 60-fold higher accumulation of Cymanquine compared to CQ, as measured by HPLC-MS/MS.

SB1A cells = experiment: Flow cytometry with NBD-PZ and propidium iodide staining; type: cell-based, human; conditions: 24 h
Description: FIG. 10. […] C, Live cells, sorted based on absence of propidium iodide staining (left panel, pentagonal gate) were analyzed for NBD-PZ staining, indicative of lysosomal content. […] Data in B,C presented as mean+/−SEM (n=3). *P<0.05, **P<0.001 by student's t-test.
Experiments aimed at elucidating the mechanism of action of Cymanquine were conducted. […] It is known that the blockade of autophagy results in the accumulation of neutralized lysosomes and of proteins normally cleared by autophagic flux.

[3] = Cyclic voltammetry, anodic oxidation potentials; type: physicochemical; conditions: dichloromethane/0.05 M [NBu4][B(C6F5)4]
Description: Electrochemical studies were carried out. The electrolyte solution used for these studies, namely dichloromethane with 0.05 M [NBu4][B(C6F5)4] as the supporting electrolyte, is known to provide an optimum medium for the electrochemical oxidation of compounds containing the MnCp(CO)3 (Cp=η^5-C5H5) backbone (Laws et al., J. Am. Chem. Soc. 2008, 130, 9859). The potentials given here are referred to the ferrocene/ferrocenium reference couple. The experiments were carried out in a controlled atmosphere which minimizes exposure to oxygen and water. We refer to two types of standard electrochemical techniques that are commonly described in books on electrochemistry: cyclic voltammetry and bulk electrolysis (Bard, A. J.; Faulkner, L. R. Electrochemical Methods, John Wiley & Sons, New York, 2001, second edition) The former is useful for the analytical and gross mechanistic aspects of the electron-transfer properties of a compound, whereas the latter is most often employed for the electro-synthetic function of making isolable quantities of electrochemical oxidation or reduction products.
Anodic oxidation of the three compounds was investigated. […]
Table of potentials (vs ferrocene/ferrocenium (FcH)) measured by cyclic voltammetry for oxidation of compounds 3, 4, and 5 in dichloromethane/0.05 M [NBu4][B(C6F5)4]. […]

[4] = test system: EGFP-LC3 fusion protein in SB1A cells; experiment: Fluorescence microscopy of EGFP-LC3 sub-cellular distribution; type: cell-based, human; conditions: SB1A stably expressing EGFP-LC3, 4 h
Description: as §3, §4

RWPE-1 = experiment: Cytotoxicity assay (MTS cell viability, 72 h) in normal prostate epithelial cells; type: cell-based, human; conditions: normal pH
Description: as §1, §2

CCN(CC)CCCC(C)Nc1ccnc2cc(Cl)ccc12 (stereo not shown) [CQ, Chloroquine]
anti-autophagic efficacy (autophagy): poor anti-autophagic efficacy

cymanquine [Compound 3]
cytotoxicity compared to CQ ([1]; low-pH (PIPES-supplemented) media): more potent cytotoxicity than CQ
cytotoxicity compared to CQ ([1]; normal pH growth conditions, listed as CMQ): more potent cytotoxicity than CQ; also recorded: more potent single-agent cytotoxic properties than CQ
accumulation in lysosomes compared to CQ [2]: 60 fold
cell death at the highest concentrations tested (LC3-II): extensive cell death
accumulation of autophagy marker LC3-II (LC3-II; western blot): dose-responsive accumulation
NBD-PZ staining (SB1A cells; highest concentration tested): reduced
cytotoxicity (percentage of live cells, propidium iodide) (SB1A cells; low micromolar exposures): significant cytotoxicity
lysosome content (NBD-PZ staining of live cells) (SB1A cells; low micromolar exposures): marked accumulation of lysosomes
Ep(1) ([3]; first oxidation, anodic peak potential, irreversible): 0.82 V vs FcH
E1/2(2) or Ep(2) ([3]; second oxidation, given as Ep (irreversible)): 1.25 V vs FcH
subcellular distribution of EGFP-LC3 [4]: punctate EGFP-LC3 emission patterns
relative sensitivity of RWPE-1 compared to transformed cell lines (RWPE-1): most resistant
